Reference: US10766855B2, “Hydroxamate triterpenoid derivatives” (VIVACELL BIOTECHNOLOGY ESPANA S.L., priority 2016, dated 2020)
Read-outs that look alike come from different tables or passages of the source.

How the values were obtained:
Format in all cases: cell-based
NF-κB = NF-κB inhibition in NIH-3T3-KBF-Luc cells stimulated with TNFα; conditions: for IC50: TNFα 30 ng/ml, 6 h
Experimental: To further study the target selectivity of the compounds described in the present invention the effect of the natural triterpenoids (OA; BA, UA, and MA), compounds II to XV of Formula (I) disclosed in present invention, and of comparative compound CDDO-Me on NF-κB inhibition, STAT-3 inhibition, Nrf2 activation and TGR5 activation was analyzed. For this study cell lines NIH-3T3-KBF-Luc, HeLa-STAT3-Luc, HaCaT-ARE-Luc and CHO-TGR5-CRE-luc were used respectively. The NIH3T3-KBF-Luc cell line stably transfected with the plasmid KBF-Luc plasmid, which contains three copies of NF-κB binding site (from major histocompatibility complex promoter), fused to a minimal simian virus 40 promoter driving the luciferase gene. Cells (1×10^4/well) were seeded in 96-well plates, treated with increasing concentrations of the compounds II to XV for 15 min and then stimulated with 30 ng/ml TNFα. After 6 h the luciferase activity in the cell lysates was measured as indicated above.

HIF-1α = HIF-1α transactivation assay in NIH-3T3-EPO-Luc fibroblast cells; conditions: for EC50 / Efficacy HIF-1α (IRA coefficient): 6 h stimulation; for EC50: read-out: Potency EC50 HIF-1α; for Efficacy HIF-1α (IRA coefficient): relative to 150 μM DFX
Experimental: To investigate the biological activities of the different compounds, HIF-1α transactivation assays were performed either in NIH-3T3-EPO-Luc cells (Table II) or in HaCaT-EPO-luc cells (FIG. 2). The NIH3T3-EPO-luc and HaCaT-EPO-luc cells have been stably transfected with the plasmid Epo-Luc plasmid. The EPO-Hypoxia Response Element (HRE)-luciferase reporter plasmid contains three copies of the HRE consensus sequence from the promoter of the erythropoietin gene fused to the luciferase gene. NIH3T3-EPO-luc cells were maintained at 37° C. in a humidified atmosphere containing 5% CO2 in DMEM supplemented with 10% fetal calf serum (FBS), and 1% (v/v) penicillin/streptomycin. DFX was purchased from Sigma-Aldrich (USA). Cells (1×10^4/well in 96 well plates) were seeded the day before the assay. […] After six hours of stimulation the cells were lysed in 25 mM Tris-phosphate pH 7.8, 8 mM MgCl2, 1 mM DTT, 1% Triton X-100, and 7% glycerol during 15 min at RT in a horizontal shaker. Luciferase activity is measured using a microplate luminometer (Berthold) following the instructions of the luciferase assay kit (Promega, Madison, Wis., USA).

Nrf2 [1] = experiment: Nrf2 activation/inhibition in HaCaT-ARE-Luc cells
Nrf2 [2] = experiment: Nrf2 activation/inhibition in HaCaT-ARE-Luc cells; conditions: for EC50: 6 h
Experimental: (§1) The HeLa-STAT3-luc cells stably transfected with the plasmid 4×M67 pTATA TK-Luc. Cells (20×10^3 cells/ml) were seeded in 96-well plates, treated with increasing concentrations of the compounds II to XIV, and of comparative compound CDDO-Me, for 15 min and then stimulated with IFN-γ 25 IU/ml. After 6 h the luciferase activity in the cell lysates was measured as indicated above. […] The HaCaT-ARE-Luc cell line contains the Nqo1 Antioxidant Response Element (ARE)-Luc reporter plasmid. ARE is activated by all members of the CNC family of factors (Nrf1, Nrf2, Nrf3 and p45 NF-E2). The cells were cultivated in 96-well plates at the concentration of 25×10^3 cells/well in a CO2 incubator at 37° C. For induction of Nrf2 activation the cells were treated with increasing concentrations of the compounds II to XV, and of comparative compound CDDO-Me, for 6 h. As a positive control the cells were treated with 0.02 mM of the antioxidant Tert-butyl-hydroquinone (TBHQ). Luciferase activity in the cell lysates was measured as indicated above and the EC50 calculated (Table III). The CHO-TGR5-CRE-Luc cells stably transfected with the pTGR5 and CRE-Luc. The CRE-responsive luciferase construct encodes the firefly luciferase reporter gene under the control of a minimal (m)CMV promoter and tandem repeats of the CRE transcriptional response element (TRE) and is useful to monitor cAMP signaling pathways activated by TGR5 agonists. Cells (1×10^4/well) were seeded in 96-well plates, treated with increasing concentrations of the compounds II to XV and CDDO-Me, for 6 h. As a positive control the cells were treated with 10 μM of LCA (lithocholic acid). Luciferase activity in the cell lysates was measured as indicated above and the EC50 calculated (Table III).

STAT3 = STAT3 inhibition in HeLa-STAT3-Luc cells stimulated with IFN-γ; conditions: for IC50: IFN-γ 25 IU/ml, 6 h
Experimental: as §1

TGR5 = TGR5 activation in CHO-TGR5-CRE-Luc cells; conditions: for EC50: 6 h
Experimental: The CHO-TGR5-CRE-Luc cells stably transfected with the pTGR5 and CRE-Luc. […] As a positive control the cells were treated with 10 μM of LCA (lithocholic acid). Luciferase activity in the cell lysates was measured as indicated above and the EC50 calculated (Table III).

| SMILES | IC50 (NF-κB) | IC50 (STAT3) | EC50 (TGR5) | EC50 (HIF-1α; Fibroblast) | IC50 (Nrf2 [1]) | EC50 (Nrf2 [2]) | inhibition of the NF-κB pathway induced by TNFα (in words) (NF-κB) | activation of the EPO promoter as a surrogate marker of HIF-1α pathway activation (in words) (HIF-1α) | activation of the Nrf2 pathway (in words) (Nrf2 [2]) | inhibition of the STAT3 pathway induced by IFNγ (in words) (STAT3) | Efficacy HIF-1α (IRA coefficient) (HIF-1α) | EC50 (HIF-1α) | agonistic TGR5 activity (in words) (TGR5) |
| --- | --- | --- | --- | --- | --- | --- | --- | --- | --- | --- | --- | --- | --- |
| COC(=O)[C@]12CCC(C)(C)C[C@H]1[C@H]1C(=O)C=C3[C@@]4(C)C=C(C#N)C(=O)C(C)(C)[C@@H]4CC[C@@]3(C)[C@]1(C)CC2 [CDDO—Me, 2-Cyano-3,12-dioxo-oleana-1,9(11)-dien-28-oic acid methyl ester, reference compound] | 1.2 µM | 2.38 µM | > 50 µM | > 50 µM | 0.06 µM | 40.9 µM | clearly inhibited | does not result in activation of the HIF pathway | activated the Nrf2 pathway | clearly inhibited |  |  |  |
| C=C(C)[C@@H]1CC[C@]2(C(=O)NO)CC[C@]3(C)[C@H](CC[C@@H]4[C@@]5(C)Cc6cn[nH]c6C(C)(C)[C@@H]5CC[C@]43C)[C@@H]12 [Compound IX, 1′H-Lup-20(29)-eno[3,2-c]pyrazol-N-hydroxy-28-amide] |  |  |  | 2.41 µM |  |  |  |  |  |  | 0.34 |  |  |
| C=C(C)[C@@H]1CC[C@]2(C(=O)NO)CC[C@]3(C)[C@H](CC[C@@H]4[C@@]5(C)Cc6cnoc6C(C)(C)[C@@H]5CC[C@]43C)[C@@H]12 [Compound VIII, Lup-2-eno[2,3-d]isoxazol-N-hydroxy-28-amide] | > 50 µM | > 50 µM | 9.62 µM | 2.58 µM | > 50 µM | > 50 µM |  |  |  |  | 0.55 |  | showed agonistic TGR5 activity |
| C=C(C)[C@@H]1CC[C@]2(C(=O)NO)CC[C@]3(C)[C@H](CC[C@@H]4[C@@]5(C)CC=CC(C)(C)[C@@H]5CC[C@]43C)[C@@H]12 [Compound X, Lupa-2,20(29)-dien-N-hydroxy-28-amide] | > 50 µM | > 50 µM | > 50 µM | 3.24 µM | > 50 µM | > 50 µM |  |  |  |  | 0.48 |  |  |
| C=C(C)[C@@H]1CC[C@]2(C(=O)NO)CC[C@]3(C)[C@H](CC[C@@H]4[C@@]5(C)CC/C(=N\O)C(C)(C)[C@@H]5CC[C@]43C)[C@@H]12 [Compound XI, 3-Hydroxyimino-N-hydroxy-lup-20(29)-en-28-amide] | > 50 µM | > 50 µM | 17.5 µM | 2.58 µM | > 50 µM | > 50 µM |  |  |  |  | 0.31 |  | showed agonistic TGR5 activity |
| CC1(C)C2CC[C@]3(C)[C@H](C(=O)C=C4[C@H]5C[C@@](C)(C(=O)NO)CC[C@]5(C)CC[C@]43C)[C@@]2(C)CC[C@@H]1O (some centres unmarked) [Compound XX, reference compound] |  |  |  | > 50 µM |  |  |  | do not activate the HIF-1α pathway |  |  |  |  |  |
| CC1(C)[C@@H](O)CC[C@]2(C)[C@H]3C(=O)C=C4[C@@H]5C[C@@](C)(C(=O)O)CC[C@]5(C)CC[C@@]4(C)[C@]3(C)CC[C@@H]12 [Glycyrrethinic acid, reference compound] |  |  |  | > 50 µM |  |  |  | do not activate the HIF-1α pathway |  |  |  |  |  |

The next lines start with results.

| IC50 (NF-κB) | IC50 (STAT3) | EC50 (TGR5) | SMILES | EC50 (HIF-1α; Fibroblast) | IC50 (Nrf2 [1]) | EC50 (Nrf2 [2]) | inhibition of the NF-κB pathway induced by TNFα (in words) (NF-κB) | activation of the EPO promoter as a surrogate marker of HIF-1α pathway activation (in words) (HIF-1α) | activation of the Nrf2 pathway (in words) (Nrf2 [2]) | inhibition of the STAT3 pathway induced by IFNγ (in words) (STAT3) | Efficacy HIF-1α (IRA coefficient) (HIF-1α) | EC50 (HIF-1α) | agonistic TGR5 activity (in words) (TGR5) |
| --- | --- | --- | --- | --- | --- | --- | --- | --- | --- | --- | --- | --- | --- |
| > 50 µM | > 50 µM | 22.2 µM | C=C(C)[C@@H]1CC[C@]2(C(=O)O)CC[C@]3(C)[C@H](CC[C@@H]4[C@@]5(C)CC[C@H](O)C(C)(C)[C@@H]5CC[C@]43C)[C@@H]12 [Betulinic acid, reference compound] | > 50 µM | > 50 µM | 9.02 µM |  |  |  |  |  |  |  |
| > 50 µM | > 50 µM | > 50 µM | CC1(C)CC[C@]2(C(=O)NO)CC[C@]3(C)C(=CC[C@@H]4[C@@]5(C)CC[C@H](O)C(C)(C)[C@@H]5CC[C@]43C)[C@@H]2C1 [Compound II, (3β) 3-Hydroxy-N-hydroxy-olean-12-en-28-amide] | 16.4 µM | > 50 µM | > 50 µM |  |  |  |  | 0.39 |  |  |
| > 50 µM | > 50 µM | > 50 µM | CC1(C)CC[C@]2(C(=O)NO)CC[C@]3(C)C(=CC[C@@H]4[C@@]5(C)CC/C(=N\O)C(C)(C)[C@@H]5CC[C@]43C)[C@@H]2C1 [Compound III, 3-Hydroxyimino-N-hydroxy-olean-12-en-28-amide] | 3.83 µM | > 50 µM | 23.9 µM |  |  |  |  | 0.43 |  |  |
| > 50 µM | > 50 µM | > 50 µM | CC1(C)CC[C@]2(C(=O)NO)CC[C@]3(C)C(=CC(=O)[C@@H]4[C@@]5(C)CC[C@H](O)C(C)(C)[C@@H]5CC[C@]43C)[C@@H]2C1 [Compound IV, (3β) 3-Hydroxy-11-oxo-olean-12-en-N-hydroxy-28-amide] | 11.4 µM | > 50 µM | 10 µM |  |  |  |  | 0.15 |  |  |
| > 50 µM | > 50 µM | > 50 µM | CC(=O)O[C@H]1CC[C@]2(C)[C@H]3C(=O)C=C4[C@@H]5CC(C)(C)CC[C@]5(C(=O)NO)CC[C@@]4(C)[C@]3(C)CC[C@H]2C1(C)C [Compound V, (3β) 3-Acetyloxy-11-oxo-olean-12-en-N-hydroxy-28-amide] | 6.71 µM | > 50 µM | > 50 µM |  |  |  |  | 0.16 |  |  |
| > 50 µM | > 50 µM | > 50 µM | CC1(C)CC[C@]2(C(=O)NO)CC[C@]3(C)C(=CC[C@@H]4[C@@]5(C)CC=CC(C)(C)[C@@H]5CC[C@]43C)[C@@H]2C1 [Compound VI, Oleana-2,12-dien-N-hydroxy-28-amide] |  | > 50 µM | > 50 µM |  |  |  |  | 0.16 | 5 µM |  |
| > 50 µM | > 50 µM | 5.91 µM | C[C@H]1[C@H](C)CC[C@]2(C(=O)NO)CC[C@]3(C)C(=CC[C@@H]4[C@@]5(C)CC[C@H](O)C(C)(C)C5CC[C@]43C)[C@H]12 (stereo partly drawn) [Compound XII, (3β) 3-Hydroxy-N-hydroxy-urs-12-en-28-amide] | 7.69 µM | > 50 µM | > 50 µM |  |  |  |  | 0.17 |  | showed agonistic TGR5 activity |
| > 50 µM | > 50 µM | > 50 µM | C[C@H]1[C@H](C)CC[C@]2(C(=O)NO)CC[C@]3(C)C(=CC[C@@H]4[C@@]5(C)CC/C(=N/O)C(C)(C)C5CC[C@]43C)[C@H]12 (some centres unmarked) [Compound XIII, 3 Hydroxyimino-N-hydroxy-urs-12-en-28-amide] | 8.93 µM | > 50 µM | > 50 µM |  |  |  |  | 0.10 |  |  |
| > 50 µM | > 50 µM |  | C[C@H]1[C@H](C)CC[C@]2(C(=O)O)CC[C@]3(C)C(=CC[C@@H]4[C@@]5(C)CC[C@H](O)C(C)(C)[C@@H]5CC[C@]43C)[C@H]12 [Ursolic acid, reference compound] | > 50 µM | > 50 µM | 38.4 µM |  | None of the natural triterpenoids |  |  |  |  |  |
